Blank lines part the entries; values can stand above or below the compound they belong to.
How the values were obtained:
SLC25A45-8xHis [1] = target: T1, SLC25A45-8xHis (Homo sapiens, UniProt Q8N413); experiment: uptake by isolated mitochondria, LC-MS; format: biochemical; details: 10 μM; pH 7.25, room temperature; labelled compound
T1 construct: SLC25A45-Xa-8xHis, tag kept; in mitochondria isolated from FreeStyle 293-F cells
T1 sequence (Q8N413 1-288): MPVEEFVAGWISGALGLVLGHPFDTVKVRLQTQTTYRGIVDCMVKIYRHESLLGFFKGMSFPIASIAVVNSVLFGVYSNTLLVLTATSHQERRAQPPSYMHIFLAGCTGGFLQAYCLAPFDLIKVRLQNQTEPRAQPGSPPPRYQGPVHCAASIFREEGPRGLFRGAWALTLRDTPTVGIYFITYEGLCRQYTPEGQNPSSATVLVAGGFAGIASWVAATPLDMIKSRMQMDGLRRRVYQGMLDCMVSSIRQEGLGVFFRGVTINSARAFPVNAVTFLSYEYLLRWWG

SLC25A45-8xHis [2] = target: T1, SLC25A45-8xHis; experiment: competition of [2H9]-TML uptake by isolated mitochondria, LC-MS; format: biochemical; details: 10 mM unlabelled TML against 10 μM [2H9]-TML, 10 min, pH 7.25, room temperature
purified human SLC25A45 = target: T2, purified human SLC25A45 (Homo sapiens, UniProt Q8N413); experiment: nanoDSF thermostability shift; format: binding; details: 10 mM compound, 20 mM HEPES pH 7.0, 50 mM NaCl, cardiolipin/LMNG, 25-95 °C at 4 °C per min
T2 construct: codon-optimised; N-terminal extension GKPRTSPK (residues 14-21 of human oxoglutarate carrier), eight-His tag and Factor Xa site, Factor Xa cleaved; from S. cerevisiae BJ2168 mitochondria; 33,118 Da; in lauryl maltose neopentyl glycol / tetraoleoyl cardiolipin
T2 sequence (Q8N413 1-288): T1 sequence (Q8N413 1-288)

Compound: CN=C(NC)NCCC[C@H](N)C(=O)O [[^2H6]-SDMA]
- uptake by isolated mitochondria, LC-MS (SLC25A45-8xHis [1]): SLC25A45 was also required for the mitochondrial uptake of the deuterium-labeled dimethylarginine isomers

- ΔTm (purified human SLC25A45): 3.4 °C
Compound: C[N+](C)(C)CCCC[C@H](N)C(=O)O [trimethyllysine]
- competition of [2H9]-TML uptake by isolated mitochondria, LC-MS (SLC25A45-8xHis [2]): mitochondrial import of [^2H9]-TML was abolished by co-incubation with excess unlabeled trimethyllysine

Compound: CN(C)C(=N)NCCC[C@H](N)C(=O)O [[^2H6]-ADMA]
- uptake by isolated mitochondria, LC-MS (SLC25A45-8xHis [1]): SLC25A45 was also required for the mitochondrial uptake of the deuterium-labeled dimethylarginine isomers

- ΔTm (purified human SLC25A45; isomer not told): 7.5 °C
Compound: dimethylarginine

Source: publication PMC12594208, “SLC25A45 is required for mitochondrial uptake of methylated amino acids and de novo carnitine biosynthesis” (Molecular Cell, 2025)
